Measured values published in PubChem BioAssay (NCI).
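Test compounds were applied to cells in 96-well plates for 48 hours at 5 doses. TGI marks complete inhibition of growth.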

Key:
Assay in all cases: growth of human tumour cells (NCI), 48 h
786-0 renal = tested on: 786-0 renal
A498 renal = tested on: A498 renal
A549 NSCLC = tested on: A549 NSCLC
ACHN renal = tested on: ACHN renal
BT-549 breast = tested on: BT-549 breast
CAKI-1 renal = tested on: CAKI-1 renal
CCRF-CEM leukemia = tested on: CCRF-CEM leukemia
COLO 205 colon = tested on: COLO 205 colon
DU-145 prostate = tested on: DU-145 prostate
EKVX NSCLC = tested on: EKVX NSCLC
HCC-2998 colon = tested on: HCC-2998 colon
HCT-116 colon = tested on: HCT-116 colon
HCT-15 colon = tested on: HCT-15 colon
HL-60(TB) leukemia = tested on: HL-60(TB) leukemia
HOP-62 NSCLC = tested on: HOP-62 NSCLC
HOP-92 NSCLC = tested on: HOP-92 NSCLC
HS 578T breast = tested on: HS 578T breast
HT29 colon = tested on: HT29 colon
IGROV1 ovarian = tested on: IGROV1 ovarian
K-562 leukemia = tested on: K-562 leukemia
KM12 colon = tested on: KM12 colon
LOX IMVI melanoma = tested on: LOX IMVI melanoma
M14 melanoma = tested on: M14 melanoma
MALME-3M melanoma = tested on: MALME-3M melanoma
MCF7 breast = tested on: MCF7 breast
MDA-MB-231 breast = tested on: MDA-MB-231 breast
MDA-MB-435 = tested on: MDA-MB-435
MDA-N = tested on: MDA-N
MOLT-4 leukemia = tested on: MOLT-4 leukemia
NCI-H226 lung = tested on: NCI-H226 lung
NCI-H23 lung = tested on: NCI-H23 lung
NCI-H460 lung = tested on: NCI-H460 lung
NCI-H522 lung = tested on: NCI-H522 lung
NCI/ADR-RES ovarian = tested on: NCI/ADR-RES ovarian
OVCAR-3 ovarian = tested on: OVCAR-3 ovarian
OVCAR-4 ovarian = tested on: OVCAR-4 ovarian
OVCAR-5 ovarian = tested on: OVCAR-5 ovarian
OVCAR-8 ovarian = tested on: OVCAR-8 ovarian
PC-3 prostate = tested on: PC-3 prostate
RPMI-8226 leukemia = tested on: RPMI-8226 leukemia
RXF 393 renal = tested on: RXF 393 renal
SF-268 CNS = tested on: SF-268 CNS
SF-295 CNS = tested on: SF-295 CNS
SF-539 CNS = tested on: SF-539 CNS
SK-MEL-2 melanoma = tested on: SK-MEL-2 melanoma
SK-MEL-28 melanoma = tested on: SK-MEL-28 melanoma
SK-MEL-5 melanoma = tested on: SK-MEL-5 melanoma
SK-OV-3 ovarian = tested on: SK-OV-3 ovarian
SN12C renal = tested on: SN12C renal
SNB-19 CNS = tested on: SNB-19 CNS
SNB-75 CNS = tested on: SNB-75 CNS
SR leukemia = tested on: SR leukemia
SW-620 colon = tested on: SW-620 colon
T-47D breast = tested on: T-47D breast
TK-10 renal = tested on: TK-10 renal
U251 CNS = tested on: U251 CNS
UACC-257 melanoma = tested on: UACC-257 melanoma
UO-31 renal = tested on: UO-31 renal

COC(=O)c1cc(C)ccc1CC(Cc1cccc(C)c1)C(=O)OC (stereo not drawn)
TGI (786-0 renal): > 100 µM | TGI (A498 renal): > 100 µM | TGI (A549 NSCLC): > 100 µM | TGI (ACHN renal): > 100 µM | TGI (BT-549 breast): > 100 µM | TGI (CAKI-1 renal): > 100 µM | TGI (CCRF-CEM leukemia): > 100 µM | TGI (COLO 205 colon): > 100 µM | TGI (DU-145 prostate): > 100 µM | TGI (EKVX NSCLC): > 100 µM | TGI (HCC-2998 colon): > 100 µM | TGI (HCT-116 colon): > 100 µM | TGI (HCT-15 colon): > 100 µM | TGI (HL-60(TB) leukemia): > 100 µM | TGI (HOP-62 NSCLC): > 100 µM | TGI (HOP-92 NSCLC): > 100 µM | TGI (HS 578T breast): > 100 µM | TGI (HT29 colon): > 100 µM | TGI (IGROV1 ovarian): > 100 µM | TGI (K-562 leukemia): > 100 µM | TGI (KM12 colon): > 100 µM | TGI (LOX IMVI melanoma): > 100 µM | TGI (M14 melanoma): > 100 µM | TGI (MALME-3M melanoma): > 100 µM | TGI (MCF7 breast): > 100 µM | TGI (MDA-MB-231 breast): > 100 µM | TGI (MDA-MB-435): > 100 µM | TGI (MDA-N): > 100 µM | TGI (MOLT-4 leukemia): > 100 µM | TGI (NCI-H226 lung): > 100 µM | TGI (NCI-H23 lung): > 100 µM | TGI (NCI-H460 lung): > 100 µM | TGI (NCI-H522 lung): > 100 µM | TGI (NCI/ADR-RES ovarian): > 100 µM | TGI (OVCAR-3 ovarian): > 100 µM | TGI (OVCAR-4 ovarian): > 100 µM | TGI (OVCAR-5 ovarian): > 100 µM | TGI (OVCAR-8 ovarian): > 100 µM | TGI (PC-3 prostate): > 100 µM | TGI (RPMI-8226 leukemia): > 100 µM | TGI (RXF 393 renal): 73.6 µM | TGI (SF-268 CNS): 53.9 µM | TGI (SF-295 CNS): > 100 µM | TGI (SF-539 CNS): > 100 µM | TGI (SK-MEL-2 melanoma): > 100 µM | TGI (SK-MEL-28 melanoma): > 100 µM | TGI (SK-MEL-5 melanoma): > 100 µM | TGI (SK-OV-3 ovarian): 27.1 µM | TGI (SN12C renal): > 100 µM | TGI (SNB-19 CNS): > 100 µM | TGI (SNB-75 CNS): > 100 µM | TGI (SR leukemia): > 100 µM | TGI (SW-620 colon): > 100 µM | TGI (T-47D breast): > 100 µM | TGI (TK-10 renal): > 100 µM | TGI (U251 CNS): > 100 µM | TGI (UACC-257 melanoma): > 100 µM | TGI (UO-31 renal): > 100 µM
